Results published in US8802597B2, “Herbicidal pyrimidines” (E I du Pont de Nemours and Company, priority 2003, dated 2014).

What was measured:
Test in all cases: Test D pre/postemergence
Type in all cases: in vivo
Settings in all cases: scale 0 to 100 (100 = complete control)
[1] = tested on: Russian thistle (Salsola kali)
Description: (§1) Seeds of plant species selected from catchweed bedstraw (galium; Galium aparine), common chickweed (Stellaria media), kochia (Kochia scoparia), lambsquarters (Chenopodium album), pigweed (Amaranthus retroflexus), Russian thistle (Salsola kali), wild buckwheat (Polygonum convolvulus), wild mustard (Sinapis arvensis), winter barley (Hordeum vulgare), and wheat (Triticum aestivum) were planted and treated preemergence with test chemicals formulated in a non-phytotoxic solvent mixture which included a surfactant.
(§2) At the same time, plants selected from these crop and weed species were treated with postemergence applications of some of the test chemicals formulated in the same manner. Plants ranged in height from 2 to 18 cm (1- to 4-leaf stage) for postemergence treatments. Treated plants and controls were maintained in a controlled growth environment for 15 to 25 days after which time all species were compared to controls and visually evaluated. Plant response ratings, summarized in Table D, are based on a scale of 0 to 100 where 0 is no effect and 100 is complete control. A dash (-) response means no test result.

[2] = tested on: catchweed bedstraw (galium; Galium aparine)
Description: as §1, §2

[3] = tested on: common chickweed (Stellaria media)
Description: as §1, §2

[4] = tested on: kochia (Kochia scoparia)
Description: as §1, §2

[5] = tested on: lambsquarters (Chenopodium album)
Description: as §1, §2

[6] = tested on: pigweed (Amaranthus retroflexus)
Description: as §1, §2

[7] = tested on: wheat (Triticum aestivum)
Description: as §1, §2

[8] = tested on: wild buckwheat (Polygonum convolvulus)
Description: as §1, §2

[9] = tested on: wild mustard (Sinapis arvensis)
Description: as §1, §2

CCOC(=O)C(OC(C)=O)c1nc(C2CC2)nc(N)c1Br (stereo not shown) [Compound 47]
80: Plant response rating, Galium ([2]; Postemergence, 125 g ai/ha)
75: Plant response rating, Galium ([2]; Postemergence, 62 g ai/ha) | Plant response rating, Kochia ([4]; Postemergence, 250 g ai/ha)
70: Plant response rating, Russian Thistle ([1]; Postemergence, 250 g ai/ha) | Plant response rating, Chickweed ([3]; Postemergence, 250 g ai/ha) | Plant response rating, Buckwheat, Wild ([8]; Postemergence, 250 g ai/ha) | Plant response rating, Mustard, Wild ([9]; Postemergence, 250 g ai/ha)
30: Plant response rating, Wheat ([7]; Postemergence, 31 g ai/ha)
98: Plant response rating, Galium ([2]; Postemergence, 250 g ai/ha)
40: Plant response rating, Lambsquarters ([5]; Postemergence, 125 g ai/ha)
55: Plant response rating, Russian Thistle ([1]; Postemergence, 62 g ai/ha) | Plant response rating, Pigweed ([6]; Postemergence, 125 g ai/ha) | Plant response rating, Mustard, Wild ([9]; Postemergence, 31 g ai/ha)
35: Plant response rating, Chickweed ([3]; Postemergence, 31 g ai/ha) | Plant response rating, Lambsquarters ([5]; Postemergence, 31 g ai/ha) | Plant response rating, Lambsquarters ([5]; Postemergence, 62 g ai/ha) | Plant response rating, Pigweed ([6]; Postemergence, 31 g ai/ha) | Plant response rating, Wheat ([7]; Postemergence, 62 g ai/ha) | Plant response rating, Wheat ([7]; Postemergence, 125 g ai/ha)
45: Plant response rating, Russian Thistle ([1]; Postemergence, 31 g ai/ha) | Plant response rating, Kochia ([4]; Postemergence, 31 g ai/ha) | Plant response rating, Lambsquarters ([5]; Postemergence, 250 g ai/ha) | Plant response rating, Wheat ([7]; Postemergence, 250 g ai/ha)
50: Plant response rating, Kochia ([4]; Postemergence, 62 g ai/ha) | Plant response rating, Pigweed ([6]; Postemergence, 62 g ai/ha)
65: Plant response rating, Russian Thistle ([1]; Postemergence, 125 g ai/ha) | Plant response rating, Galium ([2]; Postemergence, 31 g ai/ha) | Plant response rating, Chickweed ([3]; Postemergence, 125 g ai/ha) | Plant response rating, Kochia ([4]; Postemergence, 125 g ai/ha) | Plant response rating, Pigweed ([6]; Postemergence, 250 g ai/ha) | Plant response rating, Buckwheat, Wild ([8]; Postemergence, 62 g ai/ha) | Plant response rating, Buckwheat, Wild ([8]; Postemergence, 125 g ai/ha) | Plant response rating, Mustard, Wild ([9]; Postemergence, 125 g ai/ha)
60: Plant response rating, Chickweed ([3]; Postemergence, 62 g ai/ha) | Plant response rating, Buckwheat, Wild ([8]; Postemergence, 31 g ai/ha) | Plant response rating, Mustard, Wild ([9]; Postemergence, 62 g ai/ha)

COC(=O)c1nc(-c2ccc(Cl)cc2)nc(N)c1Cl [Compound 58, methyl 6-amino-5-chloro-2-(4-chlorophenyl)-4-pyrimidinecarboxylate]
75: Plant response rating, Chickweed ([3]; Preemergence, 250 g ai/ha)
65: Plant response rating, Russian Thistle ([1]; Preemergence, 125 g ai/ha) | Plant response rating, Buckwheat, Wild ([8]; Postemergence, 62 g ai/ha) | Plant response rating, Mustard, Wild ([9]; Preemergence, 62 g ai/ha)
25: Plant response rating, Wheat ([7]; Preemergence, 62 g ai/ha)
55: Plant response rating, Wheat ([7]; Postemergence, 62 g ai/ha)
95: Plant response rating, Kochia ([4]; Preemergence, 125 g ai/ha)
35: Plant response rating, Kochia ([4]; Preemergence, 62 g ai/ha)
60: Plant response rating, Chickweed ([3]; Preemergence, 62 g ai/ha) | Plant response rating, Lambsquarters ([5]; Preemergence, 62 g ai/ha) | Plant response rating, Wheat ([7]; Postemergence, 125 g ai/ha) | Plant response rating, Wheat ([7]; Preemergence, 250 g ai/ha)
70: Plant response rating, Russian Thistle ([1]; Postemergence, 62 g ai/ha) | Plant response rating, Russian Thistle ([1]; Postemergence, 125 g ai/ha) | Plant response rating, Russian Thistle ([1]; Postemergence, 250 g ai/ha) | Plant response rating, Russian Thistle ([1]; Preemergence, 250 g ai/ha) | Plant response rating, Kochia ([4]; Postemergence, 62 g ai/ha) | Plant response rating, Pigweed ([6]; Preemergence, 62 g ai/ha) | Plant response rating, Wheat ([7]; Postemergence, 250 g ai/ha) | Plant response rating, Wheat ([7]; Preemergence, 500 g ai/ha)
85: Plant response rating, Russian Thistle ([1]; Preemergence, 500 g ai/ha) | Plant response rating, Lambsquarters ([5]; Postemergence, 125 g ai/ha) | Plant response rating, Wheat ([7]; Postemergence, 500 g ai/ha)
100: Plant response rating, Galium ([2]; Postemergence, 62 g ai/ha) | Plant response rating, Galium ([2]; Postemergence, 125 g ai/ha) | Plant response rating, Galium ([2]; Postemergence, 250 g ai/ha) | Plant response rating, Galium ([2]; Postemergence, 500 g ai/ha) | Plant response rating, Galium ([2]; Preemergence, 62 g ai/ha) | Plant response rating, Galium ([2]; Preemergence, 125 g ai/ha) | Plant response rating, Galium ([2]; Preemergence, 250 g ai/ha) | Plant response rating, Galium ([2]; Preemergence, 500 g ai/ha) | Plant response rating, Chickweed ([3]; Preemergence, 500 g ai/ha) | Plant response rating, Kochia ([4]; Postemergence, 125 g ai/ha) | Plant response rating, Kochia ([4]; Postemergence, 250 g ai/ha) | Plant response rating, Kochia ([4]; Postemergence, 500 g ai/ha) | Plant response rating, Kochia ([4]; Preemergence, 250 g ai/ha) | Plant response rating, Kochia ([4]; Preemergence, 500 g ai/ha) | Plant response rating, Lambsquarters ([5]; Postemergence, 250 g ai/ha) | Plant response rating, Lambsquarters ([5]; Postemergence, 500 g ai/ha) | Plant response rating, Lambsquarters ([5]; Preemergence, 125 g ai/ha) | Plant response rating, Lambsquarters ([5]; Preemergence, 250 g ai/ha) | Plant response rating, Lambsquarters ([5]; Preemergence, 500 g ai/ha) | Plant response rating, Pigweed ([6]; Postemergence, 125 g ai/ha) | Plant response rating, Pigweed ([6]; Postemergence, 250 g ai/ha) | Plant response rating, Pigweed ([6]; Postemergence, 500 g ai/ha) | Plant response rating, Pigweed ([6]; Preemergence, 125 g ai/ha) | Plant response rating, Pigweed ([6]; Preemergence, 250 g ai/ha) | Plant response rating, Pigweed ([6]; Preemergence, 500 g ai/ha) | Plant response rating, Buckwheat, Wild ([8]; Postemergence, 250 g ai/ha) | Plant response rating, Buckwheat, Wild ([8]; Postemergence, 500 g ai/ha) | Plant response rating, Buckwheat, Wild ([8]; Preemergence, 250 g ai/ha) | Plant response rating, Buckwheat, Wild ([8]; Preemergence, 500 g ai/ha) | Plant response rating, Mustard, Wild ([9]; Postemergence, 62 g ai/ha) | Plant response rating, Mustard, Wild ([9]; Postemergence, 125 g ai/ha) | Plant response rating, Mustard, Wild ([9]; Postemergence, 250 g ai/ha) | Plant response rating, Mustard, Wild ([9]; Postemergence, 500 g ai/ha) | Plant response rating, Mustard, Wild ([9]; Preemergence, 125 g ai/ha) | Plant response rating, Mustard, Wild ([9]; Preemergence, 250 g ai/ha) | Plant response rating, Mustard, Wild ([9]; Preemergence, 500 g ai/ha)
50: Plant response rating, Wheat ([7]; Preemergence, 125 g ai/ha)
90: Plant response rating, Buckwheat, Wild ([8]; Postemergence, 125 g ai/ha)
40: Plant response rating, Russian Thistle ([1]; Preemergence, 62 g ai/ha) | Plant response rating, Buckwheat, Wild ([8]; Preemergence, 62 g ai/ha)
80: Plant response rating, Russian Thistle ([1]; Postemergence, 500 g ai/ha) | Plant response rating, Lambsquarters ([5]; Postemergence, 62 g ai/ha) | Plant response rating, Pigweed ([6]; Postemergence, 62 g ai/ha) | Plant response rating, Buckwheat, Wild ([8]; Preemergence, 125 g ai/ha)
